# Results reported in PubChem BioAssay AID743417 (Broad Institute, 2014).
# Inconclusive results are not listed.
# Tested on: Clone20 osteoblast Shn3 3'UTR firefly luciferase, 24 h
# Test: Schnurri-3 3'UTR-luciferase signal suppressors – cell-based, Clone20 osteoblasts, luminescence, dry powder, set 2, dose response (AID 743417)
row,SMILES,AC50 [µM]
1,CCOC(=O)c1ccc(NC(=O)c2nc[nH]c2C(=O)NCCNC(=O)c2[nH]cnc2C(=O)Nc2ccc(C(=O)OCC)cc2)cc1,5.51
2,Cn1nc(-c2ccc(OCC(=O)N3CCN(Cc4ccccc4)CC3)cc2)c2ccccc2c1=O,2.1
3,COc1ccc(-n2nc3c(N4CCC(C(=O)NCC(C)c5ccccc5)CC4)nnc(C)c3c2C)cc1 (stereo not drawn),3.25
4,Cc1[nH]nc2c1-c1nc3ccccc3nc1C(C)(C)C2,4.2
5,Cc1ccc2c(c1)nnn2C1CCN(S(=O)(=O)c2ccc(C(=O)N3C(C)CCCC3C)cc2)CC1 (stereo not drawn),0.695
6,CSc1nc(N2CCN(Cc3ccc4c(c3)OCO4)CC2)c2ccccc2n1,24.1
7,COc1cccc(CN(C)C(=O)c2ccc(OCC(=O)Nc3cccc(C(F)(F)F)c3)c(OC)c2)c1,4.93
8,c1ccc(CCNc2ccnc3cc4ccccc4cc23)cc1,1.62
9,O=C(Nc1ccc2oc(-c3ccncc3)nc2c1)c1ccc([N+](=O)[O-])o1,18.6
10,CC(C)Cn1c(N)c(C(=O)CSc2ccc3c(c2)OCCO3)c(=O)n(C)c1=O,0.674
11,CCCCN1C2=NCCCN2c2cc(C)c(C)cc21,0.803
12,CCCc1nc([N+](=O)[O-])c(S(=O)(=O)c2ccccc2)n1CC(C)C,7.39
13,CN(CC(=O)Nc1ccccc1Cl)C(=O)c1cccc(S(=O)(=O)N2CCN(c3ccc(F)cc3)CC2)c1,3.62
14,CN(C)C1=NC[C@H](Cc2ccccc2)N1CCCC1CCCCC1,1.47
15,CCN(CC)c1ccc(NC(=O)CN2C(=O)CSc3ncccc32)c(C)c1,1.78
16,CCn1c2ccccc2c2cc(CNCc3ccc(OC)cc3OC)ccc21,14.7
17,CC1=C(C(=O)NC2CCCc3c2cnn3-c2cccc(C)c2C)OCCO1 (stereo not drawn),3.49
18,O=[N+]([O-])c1c(NCCCO)cc(Sc2ccc(Cl)cc2)c2nonc12,5.63
19,Cn1c(SCc2cccc(Br)c2)nc2ccccc2c1=O,7.68
20,CCOC(=O)C1CCCN(S(=O)(=O)c2ccc(S(=O)(=O)N(CC)CC)cc2)C1 (stereo not drawn),0.512
21,CCOC(=O)COc1ccc2ccccc2c1/C=C/[N+](=O)[O-],5.2
22,O=C(OCn1ncc(Cl)c(Cl)c1=O)c1ccccc1Cl,3.56

row,SMILES,AC50 [µM]
1,S=C(Nc1ccccc1)Nc1ccc(OCc2ccc(Cl)cc2Cl)cc1,0.405
2,COc1cccc(CN(C)C(=O)c2cc(COc3ccc4ncccc4c3)on2)c1,1.49
3,COc1cc(NC(=O)COc2cccc3c2OC(C)(C)C3)cc(OC)c1OC,4.38
4,Oc1cc(Nc2cccnc2)cc2cccnc12,2.12
5,COc1ccc(-c2cc(C(F)(F)F)nc(S(=O)(=O)CCCC(=O)Nc3cccnc3Cl)n2)cc1OC,3.17
6,CN(CC(=O)Nc1ccccc1Cl)C(=O)c1cccc(S(=O)(=O)N2CCN(Cc3ccccc3)CC2)c1,3.47
7,CCOc1ccc2nc3cc(NCc4ccc(OC)cc4)ccc3c(N)c2c1,6.69
8,C=CCSc1nc2ccccc2n1C(=O)/C=C/c1ccc(OC)c(OC)c1,1.31
9,CCc1nnc(NC(=O)c2nc(S(=O)(=O)Cc3cccc(C)c3)ncc2Cl)s1,2.51
10,Cc1ccc(OC(=O)CCC(=O)Oc2ccc(C)cc2C)c(C)c1,3.51
11,O=c1cc(-c2ccc(O)cc2)oc2ccc3ccccc3c12,5.41
12,CC(C)(C)c1nc(NCCN2CCOCC2)c2nnn(Cc3ccccc3Cl)c2n1,8.85
13,O=C(Nc1nc(-c2ccccc2)cs1)C1CCCCN1S(=O)(=O)c1ccccc1 (stereo not drawn),5.14
14,O=C(c1cc2nc(-c3ccc(F)cc3)cc(C(F)(F)F)n2n1)N1CCCCC1c1cccnc1 (stereo not drawn),2.37
15,CC(=O)OCCNc1cc(Sc2nc3ccccc3[nH]2)c2nonc2c1[N+](=O)[O-],1.86
16,c1ccc(-c2ccc(-c3nc(-c4ccccn4)no3)cc2)cc1,3.75
17,Cc1cccc(N2C(=O)NC(=O)/C(=C\C=C\c3ccco3)C2=O)c1,3.06
18,Cc1nn(Cc2ccc(Cl)cc2)c(C)c1NC(=O)c1cc(C(C)C)on1,6.2
19,CCn1c(=O)c(C(=O)Nc2nc3ccccc3[nH]2)c(O)c2ccccc21,6.01
20,CN(C)CCNC(=O)c1cccc2nc3cccc(F)c3nc12,13.7
21,CC[n+]1c(/C=C/Nc2ccccc2)sc2ccccc21,2.06
